Data from US11708344B2, “Flavone derivatives for the treatment and prophylaxis of hepatitis B virus disease” (Hoffmann-La Roche Inc., priority 2018, dated 2023).
Read-outs that look alike come from different tables or passages of the source.

Legend:
[1] = tested on: HBsAg in HBV-infected PHH; experiment: Cryopreserved primary human hepatocytes (PHH) HBV infection assay, extracellular HBsAg (CLIA); type: cell-based
Procedure, shortened: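 Cryopreserved PHH were infected with 5.8×10^6 HBV genome equivalents in medium with 4% PEG8000 and 1% DMSO. After 9 days of treatment, extracellular HBsAg was measured by CLIA, and IC50 was derived from a 4-parameter logistic fit.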

[2] = tested on: HBeAg (surrogate marker for cccDNA) in HepDES19 cells; experiment: Engineered HepDES19 primary screen assay (HBeAg ELISA); type: cell-based, HBV; conditions: Hepatitis B virus, HepDES19, 120 h, read-out: IC50 (HBeAg level, HepDES19 primary screen assay), HepDES19 cells, 5 days compound incubation, HBeAg ELISA
Procedure, shortened: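 IC50 values come from 4-parameter logistic fits of HBeAg ELISA signal, the cccDNA surrogate, with CCK-8 run in parallel for viability. Compounds at half-log dilutions with 1% DMSO were applied for 5 days at 37 °C to HepDES19 cells previously cultured 8 days without Tet.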

[3] = Human microsome stability assay; type: in vitro ADME; conditions: human liver microsomes, 1 μM test compound, 0.5 mg/mL microsomal protein, 37° C., pH 7.4, 0-30 minutes
Procedure, shortened: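 Parent compound remaining was measured by LC-MS/MS at 0, 3, 6, 9, 15 and 30 min, following ACN quench. Reactions held 1 μM compound and 0.5 mg/mL human liver microsomal protein in pH 7.4 phosphate buffer at 37 °C, started by NADPH regeneration (1 mM NADP, 1 mM MgCl2); controls lacked NADPH.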

[4] = Hepatitis B virus, Hepatocyte, 216 h, read-out: HBsAg IC50, Cryopreserved PHH infected with HBV, 9 days post-compound treatment, extracellular HBsAg

| SMILES | IC50 [1, 4] [µM] | IC50 [2] [µM] | Clearance of Human microsome [3] [L/h/kg] | IC50 ([1]; read-out: HBsAg IC50, Cryopreserved PHH infected with HBV, 9 days post-compound treatment, extracellular HBsAg) [µM] |
| --- | --- | --- | --- | --- |
| COc1cc(-c2cc(=O)c3cccc(Cl)c3o2)c(OC2CC(C(=O)O)C2)cc1Br (stereo not drawn) [Example B004, 3-[5-bromo-2-(8-chloro-4-oxo-chromen-2-yl)-4-methoxy-phenoxy]cyclobutanecarboxylic acid] | 5.52 | 0.556 | 0.369 |  |
| O=C(O)C1CC(Oc2cc(OC(F)(F)F)ccc2-c2cc(=O)c3cccc(Cl)c3o2)C1 (stereo not drawn) [Example B005, 3-[2-(8-chloro-4-oxo-chromen-2-yl)-5-(trifluoromethoxy)phenoxy]cyclobutanecarboxylic acid] | 6.97 | 0.219 | 0.369 |  |
| O=C(O)C1CC(Oc2cc(OC(F)(F)F)c(Br)cc2-c2cc(=O)c3cccc(Cl)c3o2)C1 (stereo not drawn) [Example B007, 3-[4-bromo-2-(8-chloro-4-oxo-chromen-2-yl)-5-(trifluoromethoxy)phenoxy]cyclobutanecarboxylic acid] | 2.24 | 2.31 | 0.369 |  |
| O=C(O)C1CCC(Oc2cc(Br)ccc2-c2cc(=O)c3cccc(Cl)c3o2)CC1 (stereo not drawn) [Example B010, 4-[5-bromo-2-(8-chloro-4-oxo-chromen-2-yl)phenoxy]cyclohexanecarboxylic acid] | 7.08 | 2.76 | 0.369 |  |
| COc1ccc(-c2cc(=O)c3cccc(Cl)c3o2)c(O[C@H]2C[C@@H](C(=O)O)C2)c1 [Example B011-A, Cis-3-[2-(8-chloro-4-oxo-chromen-2-yl)-5-methoxy-phenoxy]cyclobutanecarboxylic acid] | 2.32 | 0.851 | 0.501 |  |
| Cc1cc(-c2cc(=O)c3cccc(Cl)c3o2)c(O[C@H]2C[C@@H](C(=O)O)C2)cc1Cl [Example B012-A, Cis-3-[5-chloro-2-(8-chloro-4-oxo-chromen-2-yl)-4-methyl-phenoxy]cyclobutanecarboxylic acid] |  | 3.27 | 0.369 | 6.01 |
| O=c1cc(-c2ccc(OC(F)(F)F)cc2O[C@H]2C[C@@H](C(=O)O)C2)oc2c(Cl)cccc12 [Example B015-A, Cis-3-[2-(8-chloro-4-oxo-chromen-2-yl)-5-(trifluoromethoxy)phenoxy]cyclobutanecarboxylic acid] | 2.57 | 3.79 | 0.369 |  |
| Cc1ccc(-c2cc(=O)c3cccc(Cl)c3o2)c(O[C@H]2C[C@@H](C(=O)O)C2)c1 [Example B018-A, Cis-3-[2-(8-chloro-4-oxo-chromen-2-yl)-5-methyl-phenoxy]cyclobutanecarboxylic acid] | 0.887 | 0.146 | 0.369 |  |
| O=c1cc(-c2ccccc2O[C@H]2C[C@@H](C(=O)O)C2)oc2c(Br)cccc12 [Example B022-A, Cis-3-[2-(8-bromo-4-oxo-chromen-2-yl)phenoxy]cyclobutanecarboxylic acid] | 3.83 | 0.112 | 0.369 |  |
| O=c1cc(-c2cc(C(F)(F)F)c(Br)cc2O[C@H]2C[C@H](C(=O)O)C2)oc2c(Cl)cccc12 [Example B024, Trans-3-[5-bromo-2-(8-chloro-4-oxo-chromen-2-yl)-4-(trifluoromethyl)phenoxy]cyclobutanecarboxylic acid] | 6.84 | 1.64 | 0.445 |  |
| O=c1cc(-c2ccccc2OC[C@H]2C[C@@H](C(=O)O)C2)oc2c(Cl)cccc12 [Example B026-A, Cis-3-[[2-(8-chloro-4-oxo-chromen-2-yl)phenoxy]methyl]cyclobutanecarboxylic acid] | 4.97 | 0.0394 | 0.369 |  |
| O=c1cc(-c2ccccc2OC[C@H]2C[C@H](C(=O)O)C2)oc2c(Cl)cccc12 [Example B026-B, Trans-3-[[2-(8-chloro-4-oxo-chromen-2-yl)phenoxy]methyl]cyclobutanecarboxylic acid] | 3.19 | 0.138 | 0.369 |  |
| O=c1cc(-c2ccc(C3CC3)cc2O[C@H]2C[C@@H](C(=O)O)C2)oc2c(Cl)cccc12 [Example B035-A, cis-3-[2-(8-chloro-4-oxo-chromen-2-yl)-5-cyclopropyl-phenoxy]cyclobutanecarboxylic acid] | 1.46 | 0.16 | 0.508 |  |
| O=c1cc(-c2ccc(Br)cc2O[C@H]2C[C@@H](C(=O)O)C2)oc2c(Cl)ccc(O)c12 [Example B036-A, Cis-3-[5-bromo-2-(8-chloro-5-hydroxy-4-oxo-chromen-2-yl)phenoxy]cyclobutanecarboxylic acid] | 9.5 | 0.926 | 0.369 |  |
| Cc1ccc(-c2cc(=O)c3c(O)ccc(Cl)c3o2)c(O[C@H]2C[C@@H](C(=O)O)C2)c1 [Example B037-A, Cis-3-[2-(8-chloro-5-hydroxy-4-oxo-chromen-2-yl)-5-methyl-phenoxy]cyclobutanecarboxylic acid] | 2.04 | 4.43 | 0.592 |  |
| O=c1cc(-c2ccc(C(F)(F)F)cc2O[C@H]2C[C@H](C(=O)NS(=O)(=O)C3CC3)C2)oc2c(Cl)cccc12 [Example B043-B, trans-3-[2-(8-chloro-4-oxo-chromen-2-yl)-5-(trifluoromethyl)phenoxy]-N-cyclopropylsulfonyl-cyclobutanecarboxamide] | 3.7 | 1.14 | 0.369 |  |
| CS(=O)(=O)NC(=O)[C@H]1C[C@@H](Oc2cc(OC(F)(F)F)ccc2-c2cc(=O)c3cccc(Cl)c3o2)C1 [Example B047-A, Cis-3-[2-(8-chloro-4-oxo-chromen-2-yl)-5-(trifluoromethoxy)phenoxy]-N-methylsulfonyl-cyclobutanecarboxamide] | 5.54 | 1.96 | 0.369 |  |
| COc1cc(O[C@H]2C[C@H](C(=O)NS(C)(=O)=O)C2)c(-c2cc(=O)c3cccc(Cl)c3o2)cc1C [Example B050-B, Trans-3-[2-(8-chloro-4-oxo-chromen-2-yl)-5-methoxy-4-methyl-phenoxy]-N-methylsulfonyl-cyclobutanecarboxamide] | 9.46 | 6.08 | 0.461 |  |
| Cc1ccc(-c2cc(=O)c3cccc(Cl)c3o2)c(O[C@H]2C[C@@H](C(=O)NS(C)(=O)=O)C2)c1 [Example B051-A, Cis-3-[2-(8-chloro-4-oxo-chromen-2-yl)-5-methyl-phenoxy]-N-methylsulfonyl-cyclobutanecarboxamide] | 3.21 | 6.18 | 0.369 |  |
| Cc1ccc(-c2cc(=O)c3cccc(Cl)c3o2)c(O[C@H]2C[C@H](C(=O)NS(C)(=O)=O)C2)c1 [Example B051-B, Trans-3-[2-(8-chloro-4-oxo-chromen-2-yl)-5-methyl-phenoxy]-N-methylsulfonyl-cyclobutanecarboxamide] | 5.3 | 9.22 | 0.418 |  |
| Cc1ccc(-c2cc(=O)c3cccc(Cl)c3o2)c(O[C@H]2C[C@@H](C(=O)NS(=O)(=O)C3CC3)C2)c1 [Example B052-A, Cis-3-[2-(8-chloro-4-oxo-chromen-2-yl)-5-methyl-phenoxy]-N-cyclopropylsulfonyl-cyclobutanecarboxamide] | 8.48 | 10.7 | 0.369 |  |
| Cc1ccc(-c2cc(=O)c3cccc(Cl)c3o2)c(O[C@H]2C[C@H](C(=O)NS(=O)(=O)C3CC3)C2)c1 [Example B052-B, Trans-3-[2-(8-chloro-4-oxo-chromen-2-yl)-5-methyl-phenoxy]-N-cyclopropylsulfonyl-cyclobutanecarboxamide] | 7.98 | 16.3 | 0.369 |  |
| O=C(O)C(O)COc1cc(C(F)(F)F)ccc1-c1cc(=O)c2cccc(Cl)c2o1 (stereo not drawn) [Example B073, 3-[2-(8-chloro-4-oxo-chromen-2-yl)-5-(trifluoromethyl)phenoxy]-2-hydroxy-propanoic acid] | 5.97 | 1.04 | 0.369 |  |
| O=C(O)[C@@H]1C[C@@H](Oc2cc(C(F)(F)F)ccc2-c2cc(=O)c3cccc(Cl)c3o2)CN1S(=O)(=O)c1ccccc1 [Example B076, (2S,4R)-1-(benzenesulfonyl)-4-[2-(8-chloro-4-oxo-chromen-2-yl)-5-(trifluoromethyl)phenoxy]pyrrolidine-2-carboxylic acid] | 1.31 | 0.111 | 0.369 |  |
| O=C(O)[C@@H]1C[C@H](Oc2cc(Br)ccc2-c2cc(=O)c3cccc(Cl)c3o2)CN1S(=O)(=O)c1ccccc1 [Example B082] | 4.8 | 1.98 | 0.369 |  |
